Residues, ends and D or L forms follow the SMILES beside them.
What was measured:
NSCLC tumor = assay: H1299.3 15-mer in vivo tumor targeting
Description: (§1) A modified MGS peptide (SEQ ID NO: 31) that fuses amino acids 1-5 and 11-20 of the original MGS peptide: LQWRRNFGVWARYRL (SEQ ID NO: 31) was assessed.

[1] = Solubility of H1299.3 15-mer; type: physicochemical; details: effect of acetylation
[2] = tested on: NSCLC and other tumor cells; assay: Peptide binding/internalization in tumor cell lines; type: cell-based, human
Description: (§2) Flow Cytometry. Biotinylated peptide was conjugated to streptavidin-R-phycoerythrin (1:1) for 30 min at RT. The remaining binding sites on streptavidin were quenched with RPMI 1640 and solution diluted to 25 nM. Tumor cells were grown to 90% confluency in a 12 well plate, then incubated with 500 μl peptide-dye conjugate for 1 hour at 37 C. After 1 hour, peptide was removed and the cells were washed 3× with PBS for 5 min, 2× with acid rinse, and 1×PBS rinse. Added 300 μl trypsin until cells lifted then added 700 μl RPMI+5% FBS to inactivate the trypsin. Cells were transferred to a flow tube, and put on ice in the dark. Flow cytometry was run on BD FACSCelesta and data were analyzed on Flowing software. A region containing <5% of the cells in the negative control is established and the McGuire score is calculated for each sample by multiplying the % of positive cells by the fluorescence intensity.
(§3) For the flow cytometry experiments, cells are treated with a peptide (e.g., a MGS peptide) that has a dye on it for one hour. If the peptide enters the cell(s), the dye will also enter the cell(s) (see, FIG. 11). Next, the cells are washed and placed in a tube to run flow cytometry. The flow cytometer can measure the brightness of 10,000 or more individual cells.
Phage blocking was used as a control. HCC15.2 was internalized by a specific panel of cell lines and not others.

H1299 cells = assay: Confocal microscopy, organelle co-localization; type: cell-based, human; details: over time
Description: Confocal Microscopy. Plasmids with organelle specific markers labeled with GFP were purchased from Addgene and electroporated into H1299 cells. After G418 selection, GFP-labeled tumor cells were plated on 8 well chamber slides on the day previous to the study. Biotinylated peptide was conjugated to streptavidin-AlexaFluor 555 (1:1) for 30 min at RT and quenched with RPMI, then added to the wells at 50 nM. After 1 hour incubation cells were washed for 5 min 3× with PBS, 2× acid rinses, and 1×PBS rinse. Cells were fixed in 2% formaldehyde for 10 min, washed with PBS, stained with DAPI in mounting media and coverslip was added. Microscopy was acquired on a Zeiss LSM 700 with a Pln Apo 63×/1.4 oil DIC III objective. Compressed images were obtained using ImageJ software maximal intensity projections.
For the microscopy experiments, cells are treated with a peptide (e.g., a MGS peptide) that has a dye on it for one hour. If the peptide enters the cell(s), the dye will also enter the cell(s) (see, FIG. 1). Next, the cells are washed and fixed to glass plate. Other parts of the cell (e.g., cell membrane, organelles or nucleus) are stained. Fluorescent microscopy is performed to assess the dyes in the cells. Confocal microscopy is used to take a series of sliced images that can be used to build a 3D picture (like an MRI).

LC line H1299 = assay: Flow cytometry binding of peptide-dye conjugate, H1299; type: cell-based, human
Description: as §2, §3

normal HBEC's = assay: Flow cytometry binding of peptide-dye conjugate, normal HBEC; type: cell-based
Description: as §2, §3

cancer cells [3] = assay: H1299.3 15-mer cell binding and autophagosome co-localization; type: cell-based
Description: as §1

cancer cells [4] = assay: Cancer cell killing assay; type: cell-based; details: unconjugated
Description: A cancer cell killing assay was performed (see, FIG. 22). Cancer cells were put into a dish. After 24 hours, cells were given different doses of peptide-saporin for 1 hour. Peptide-saporin was washed off and cells were left for 72 more hours. Assay to measure live cells performed.

## CC(=O)N[C@@H](CC(C)C)C(=O)N[C@@H](CCC(N)=O)C(=O)N[C@@H](Cc1c[nH]c2ccccc12)C(=O)N[C@@H](CCCNC(=N)N)C(=O)N[C@@H](CCCNC(=N)N)C(=O)N[C@@H](CC(N)=O)C(=O)N[C@@H](Cc1ccccc1)C(=O)NCC(=O)N[C@H](C(=O)N[C@@H](Cc1c[nH]c2ccccc12)C(=O)N[C@@H](C)C(=O)N[C@@H](CCCNC(=N)N)C(=O)N[C@@H](Cc1ccc(O)cc1)C(=O)N[C@@H](CCCNC(=N)N)C(=O)N[C@@H](CC(C)C)C(=O)O)C(C)C [1299.3 Ac-15mer] (Ac-LQWRRNFGVWARYRL-OH; N-terminus and C-terminus assumed)
NSCLC tumor; effect of acetylation
  degradation in vivo: protects degradation in vivo
[1]
  solubility: improves solubility

## FHAVPQSFYT [SEQ ID NO: 3]
[2]; N-terminal acetylation
  effect of acetylation on binding of the truncated peptide: improves binding

## FHAVPQSFYTAP [HCC15.2]
H1299 cells
  lysosome localization: accumulates in the lysosome over time
[2]
  binding to cell line panel: binds to a specific subset of NSCLC and other tumor cells
[2]; at 4° C.
  internalization: does not internalize
[2]; tetramer compared to monomer
  effect of tetramerization on receptor mediated internalization: does not significantly improve
[2]; treating with trypsin 2 min before adding peptide
  internalization: no internalization
LC line H1299
  binding by flow cytometry: binds
Normal HBEC's
  binding by flow cytometry: does not bind

## LQWRRNFGVWARYRL [SEQ ID NO: 31]
NSCLC tumor; NSCLC tumor in an animal
  tumor targeting in vivo: hones to a NSCLC tumor
NSCLC tumor; in vivo
  reduction in heart, lung and kidney tumors: > 2 fold
Cancer cells [3]; cancer versus normal cell binding
  cancer specificity: maintains its cancer specificity
Cancer cells [3]; versus original peptide
  trafficking to the autophagosome: increases its ability to traffic to the autophagosome

## saporin: ribosome inactivating protein (RIP, 34 KD) with no cell entry domain; plant toxin
Cancer cells [4]
  cell entry: did not enter the cell by itself
